Experimental findings from patent US4665087A, “1-(carbamyl, thiocarbamyl, and iminocarbamyl)-indoline derivatives” (Ciba-Geigy Corporation, priority 1985, dated 1987) are described below.

Structures can show the parent of a compound that is named as a salt.

Assay [1] deals with T1, angiotensin-converting enzyme (Oryctolagus cuniculus, UniProt P12822).
T1 construct: freshly prepared from lungs of adult male rabbits; from tissue; host or cells: lungs of adult male rabbits
T1 sequence (P12822 34-1310): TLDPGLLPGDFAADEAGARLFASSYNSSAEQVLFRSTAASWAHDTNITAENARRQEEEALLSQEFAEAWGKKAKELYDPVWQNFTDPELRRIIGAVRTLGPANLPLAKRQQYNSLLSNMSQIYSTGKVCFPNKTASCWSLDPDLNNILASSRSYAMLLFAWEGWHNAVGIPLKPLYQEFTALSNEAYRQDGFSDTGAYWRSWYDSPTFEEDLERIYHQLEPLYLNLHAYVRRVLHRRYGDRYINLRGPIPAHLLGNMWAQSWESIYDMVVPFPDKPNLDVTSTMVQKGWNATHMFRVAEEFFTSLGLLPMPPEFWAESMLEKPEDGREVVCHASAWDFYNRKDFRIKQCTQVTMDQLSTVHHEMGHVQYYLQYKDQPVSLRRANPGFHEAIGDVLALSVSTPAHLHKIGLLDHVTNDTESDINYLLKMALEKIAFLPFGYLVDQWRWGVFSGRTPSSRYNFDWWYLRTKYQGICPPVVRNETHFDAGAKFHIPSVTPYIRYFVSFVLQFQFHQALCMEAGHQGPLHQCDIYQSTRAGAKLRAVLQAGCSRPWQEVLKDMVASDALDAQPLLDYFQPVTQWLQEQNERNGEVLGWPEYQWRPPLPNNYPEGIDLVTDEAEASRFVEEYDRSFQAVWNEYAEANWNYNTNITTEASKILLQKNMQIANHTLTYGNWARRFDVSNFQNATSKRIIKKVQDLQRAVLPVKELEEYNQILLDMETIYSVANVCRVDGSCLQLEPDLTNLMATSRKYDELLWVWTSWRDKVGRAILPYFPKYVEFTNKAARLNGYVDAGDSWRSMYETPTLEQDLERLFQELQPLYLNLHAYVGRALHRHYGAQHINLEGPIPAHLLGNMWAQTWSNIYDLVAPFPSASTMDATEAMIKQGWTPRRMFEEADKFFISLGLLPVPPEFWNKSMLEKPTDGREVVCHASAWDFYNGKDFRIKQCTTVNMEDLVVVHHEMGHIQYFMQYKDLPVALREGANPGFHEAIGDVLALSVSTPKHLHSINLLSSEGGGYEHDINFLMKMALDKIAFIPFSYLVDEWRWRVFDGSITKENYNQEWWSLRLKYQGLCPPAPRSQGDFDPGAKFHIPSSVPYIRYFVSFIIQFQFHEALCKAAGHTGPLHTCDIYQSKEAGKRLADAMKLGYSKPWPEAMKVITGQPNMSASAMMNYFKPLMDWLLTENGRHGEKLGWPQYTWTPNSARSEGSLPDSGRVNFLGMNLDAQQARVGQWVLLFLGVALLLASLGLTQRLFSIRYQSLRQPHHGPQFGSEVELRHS
Put plainly: in vitro inhibition of the angiotensin-converting enzyme. It counts as biochemical, rabbit. The protocol:
Biophys. Acta 293, 451 (1973). According to this method said compounds are dissolved at about 1 mM concentrations in phosphate buffer, externally cooled with ice. To these solutions various μl amounts of 1 mM of histidyl-leucine in phosphate buffer are added, followed by 100 μl of 4mM hippuryl-histidyl-leucine in phosphate buffer and 50 μl of the angiotensin-converting enzyme, which is freshly prepared from lungs of adult male rabbits in Tris buffer, containing potassium and magnesium chloride, as well as sucrose. The solutions are incubated at 37° C. for 30 minutes and combined with 0.75 ml or 0.6 N aqueous sodium hydroxide to stop further reaction. Then 100 μl of o-phthalaldehyde are added at room temperature, and 10 minutes later 100 μl of 6N hydrochloric acid. These samples are read against water in a spectrophotometer set at 360 nm, and the optical densities thereof estimated. They are corrected for the standard curve via a conversion factor expressing nanomoles of histidyl-leucine formed during the 30 minute incubation period. The results are plotted against drug concentration to determine the IC50, i.e., the drug concentration which gives half the activity of the control sample containing no drug. Again, representative members of the compounds of this invention are very effective in this in vitro test system, down to IC50 values as low as 5 nM (5×10^-9 M).

The test system of assay [2] is angiotensin I pressor response. Put plainly: inhibition of the angiotensin I pressor response in anesthetized normotensive rats. It counts as in vivo. As to conditions: rat, 1.0 mg/kg i.v. As to the method:
The enzyme renin normally causes specific hydrolysis of the circulating protein renin substrate. This hydrolysis generates angiotensin I, which is further hydrolyzed by the action of said converting enzyme to the potent vasoconstrictor angiotensin II. The inhibition of said enzyme prevents the generation of angiotensin II from I and, therefore, attenuates any pressure response following an angiotensin I challenge.
The corresponding in vivo test is performed with male, normotensive rats, which are anesthetized with 100-120 mg/kg i.p. of sodium ethyl-(1-methylpropyl)-malonylthiourea. A femoral artery and saphenous vein are cannulated for direct blood pressure measurement and i.v. administration of angiotensin I and compounds of this invention. After the basal blood pressure is stabilized, pressor response is to 3 challenge of 0.33 μg/kg of angiotensin I i.v., in 5 minutes intervals, are obtained. Such pressure responses are again obtained 5, 10, 15, 30 and 60 minutes after either i.v., or p.o. administration (stomach tube) of the compounds to be tested, and compared with the initial responses. […]

What is called IC50 is the concentration that gives 50% inhibition. A lower IC50 goes with greater potency. Turning to `NCCCCN(C[C@@H](CCc1ccccc1)C(=O)O)C(=O)N1c2ccccc2C[C@H]1C(=O)O` [Example 9, 1S-[(R)-N-(2-carboxy-4-phenylbutyl)-N-(4-aminobutyl)carbamoyl]-2,3-dihydroindole-2-carboxylic acid disodium salt], the IC50 in assay [1] is around 6 nM. For the same compound, in assay [2], the “inhibition of the angiotensin I induced hypertension” value is listed as “virtually completely inhibits”.
